Results published in patent publication US9968626B2, “Method for treating obesity” (Rhamnopharma Inc., priority 2011, dated 2018).

Assay: Body weight of allergic-rhinitis-sensitized Balb/C mice after intranasal rhamnolipid doses (Example 1)
Format: in vivo
Settings: 0.5% solution in saline, 5 μl per nostril at two time points on Day 37 (total 20 μl)
Description: Originally, the objective of this study was to determine the effects of treatment with three different pharmaceutical formulations of rhamnolipids within the context of an allergic rhinitis study in mice. However, the weight loss effects due to treatment with the various rhamnolipids were unexpectedly discovered during the course of this study. Materials Animal: Balb/C mice were used in this study and were eight weeks old. The treatment groups and the placebo group were each composed of 10 mice. Allergenization was performed in a similar fashion as reported in the literature. Sensitization Materials: The following were used to sensitize and induce allergic rhinitis in the mice:
Mice were sensitized once-weekly with four intraperitoneal injections of OVA/Alum (Day 0, […], 14 and 21). From Day 22-39, anesthetized mice were administered once-daily doses of the OVA stock solution instilled in each nostril.
On Day 37, mice were assigned to one of three rhamnolipid treatment groups or a placebo group. The rhamnolipid treatment groups received a rhamnolipid mixture containing RPI-100, RPI-200, or RPI-300. […] Body weights of the mice were measured and recorded on Days 35, 37, and 39 as part of a standard animal safety observation protocol. […]

CCCCCCCC(CC(=O)O)OC(=O)CC(CCCCCCC)O[C@@H]1O[C@@H](C)[C@H](O)[C@@H](O)[C@H]1O (stereo partly drawn) [RPI-200, L-rhamnosyl-β-hydroxydecanoyl-β-hydrocydecanoate]
body weight, 2 days post-treatment (Day 39) compared with 2 days pre-treatment (Day 35), versus placebo: statistically significant reduction in body weight
